Results taken from US20260159474A1, “Aminoindane Compounds and Compositions and Methods of Their Therapeutic Use” (Solvonis Therapeutics Ireland Holdings Limited, priority 2021, published 2026).
Several values for one entry are separate records, joined by “and”; a condition that tells them apart may be missing. Equal entries are not always repeated.

Key:
hSERT = target: T1, hSERT (Homo sapiens, UniProt P31645); experiment: SERT uptake SPA in hSERT-CHO cells; assay type: cell-based; conditions: for IC50: [3H]-serotonin uptake, hSERT-CHO cells, read-out: SERT Uptake SPA (pIC50) (converted)
T1 construct: expressed in transfected cells; host or cells: CHO (hSERT-CHO)
T1 sequence (P31645 whole entry): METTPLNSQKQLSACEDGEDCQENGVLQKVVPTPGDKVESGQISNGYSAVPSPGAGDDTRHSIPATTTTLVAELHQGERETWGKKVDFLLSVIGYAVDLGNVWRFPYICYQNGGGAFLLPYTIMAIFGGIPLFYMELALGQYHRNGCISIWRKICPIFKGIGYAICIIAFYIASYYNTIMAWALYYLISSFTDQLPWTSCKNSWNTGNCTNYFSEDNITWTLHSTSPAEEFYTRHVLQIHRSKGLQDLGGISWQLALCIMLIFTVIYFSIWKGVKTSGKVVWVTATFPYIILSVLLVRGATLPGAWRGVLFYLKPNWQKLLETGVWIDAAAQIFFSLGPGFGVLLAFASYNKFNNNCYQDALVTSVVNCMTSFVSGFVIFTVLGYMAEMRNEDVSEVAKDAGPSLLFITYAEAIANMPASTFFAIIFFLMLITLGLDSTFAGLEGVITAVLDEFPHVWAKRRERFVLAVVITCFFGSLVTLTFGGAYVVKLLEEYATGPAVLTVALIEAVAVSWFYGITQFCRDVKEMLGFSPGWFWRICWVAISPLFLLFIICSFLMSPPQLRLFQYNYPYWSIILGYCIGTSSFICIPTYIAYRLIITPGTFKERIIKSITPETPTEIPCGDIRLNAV
Protocol: (§4) Briefly, on experiment days, hDAT-CHO cells were detached using Versene and added at a density of approximately 300,000 cells/mL to the SPA Mixture, which contains the following components in Assay Buffer (20 mM HEPES, 145 mM NaCl, 5 mM KCl, 2 mM CaCl2), 1 mM MgCl2, 5.5 mM glucose, 0.01% Pluronic F127, pH 7.3): 0.75 mg/mL SPA Imaging beads (RPNQ0001, PerkinElmer), 10 μM pargyline and 80 nM of [3H]-dopamine (NET673, PerkinEImer). The SPA Mixture was added 20 μL/well to 384 well plates containing 0.1 μL/well of test compound in neat DMSO (11 points of 1:5 serial dilution, 0.5% DMSO final) or 0.1 μL of DMSO (total uptake) or 0.1 μL of the standard inhibitor indatraline (at 1 μM final concentration, as nonspecific uptake). Plates were sealed with a Top-seal A and read using a Microbeta counter (PerkinElmer) after 45 minutes of incubation at room temperature. […] The SPA Mixture was added 20 μL/well to 384 well plates containing 0.1 μL/well of test compound in neat DMSO (11 points of 1:5 serial dilution, 0.5% DMSO final), 0.1 μL of DMSO (total uptake), or 0.1 μL of the standard inhibitor indatraline (1 μM, nonspecific uptake). Plates were sealed with a Top-seal A and read using a Microbeta counter (PerkinElmer) after 120 minutes of incubation at room temperature.
For both tests, the raw experimental data (cpm) were elaborated for the determination of pIC50/IC50 values as % inhibition of specific uptake. Concentration-response curves of MDMA, MDDMA, citalopram and GBR-12909 were used as internal standards in all experiments, and the signal window was monitored in each plate performing Z′ calculations, as described in Zhang et al., J Biomol Screen.

[1] = system: DA release in rat synaptosomes; experiment: Dopamine release assay in rat striatal synaptosomes; assay type: biochemical; conditions: % of maximal release with 50 μM MDMA, n=2
Protocol: (§1) Methods-Evaluation of Monoamine Release: The potency of therapeutic compounds for stimulating DA release was measured by an endpoint release filtration assay in a 96-well format using rat synaptosomes, essentially as described by Sandtner et al. (Mol Pharmacol., 2016; 89(1):165-75.) and Baumann et al. (Neuropsychopharmacol, 2013; 38:552-562.) with some variations. One male rat was euthanized, and striatum/cortex regions were dissected over ice. The striatum portions were weighed and put in a glass tube containing ice-cold 0.32 M sucrose (dilution 1:24 w/v) for homogenization, while the frontal cortex tissue was diluted in ice-cold 0.32 M sucrose, 1:20 w/v. Tissues were homogenized and centrifuged for 10 mins at 1000×g. The two supernatants from striatum and cortex (crude synaptosomes) were retained on ice until use.
(§2) Test compounds were then serially diluted 1:4 in neat DMSO as concentration-response curves (CRC) of 11 points. To each well of a 2-mL 96 deep-well plate (Whatman UNIPLATE 96 well) were added: 2 μL of a concentration-response curve (CRC) of test compounds or 2 μL of DMSO (no-release condition) or 2 μL of MDMA 10 mM solution (final 50 μM, for maximal release), followed by 200 μL/well of complete Krebs-phosphate buffer (126 mM NaCl, 2.4 mM KCl, 0.83 mM CaCl2), 0.8 mM MgCl2, 0.5 mM KH2PO4, 0.5 mM Na2SO4, 11.1 mM glucose, 0.05 mM pargyline, 1 mg/mL ascorbic acid, freshly added, pH 7.4), containing 1 μM reserpine to block vesicular uptake of substrate. Desipramine (100 nM) and citalopram (100 nM) were also added to the release assay buffer in order to inhibit NET and SERT uptake, respectively. The final compound dilution, then, was 1:200 in 0.5% DMSO.
3H-Dopamine was added to the tube containing the crude striatal synaptosomes preparation, diluted 1:20 (v/v) in complete Krebs-phosphate buffer, and was incubated at RT and gently mixed for 60 minutes. Then, 200 μL/well of 3H-DA loaded synaptosomes were dispensed to the compound plate (final 400 μL/well), and the release reaction proceeded for an additional 15 minutes at RT. The release was terminated by vacuum filtration and washing three times with 1 mL of saline solution (NaCl 0.9%) at RT. The retained radioactivity was counted in a scintillation counter after the addition of 50 μL/well Microscint-20.
(§3) The raw data (cpm) from residual radioactivity onto the filter were elaborated for the determination of pEC50/EC50 values. Specifically, the compound effect was expressed as the percent of maximal release obtained with 50 μM MDMA (100% release) in comparison to vehicle (0.5% DMSO, 0% release). Both MDMA and D-amphetamine in CRC were used as internal controls in each release experiment. In each plate, for both 0% and 100% of release, the signal window was monitored and Z′ calculations were determined using the raw data of four replicates. 5-HT release was calculated in an identical fashion, except that 5 nM 3H-serotonin was added to crude cortex synaptosomes preparation diluted 1:13 (v/v) in complete Krebs-phosphate buffer containing 1 μM Reserpine, 100 nM GBR12909 and 100 nM nomifensine to block vesicular, DAT, and NET uptake, respectively. Synaptosomes were then loaded with 3H-5HT for 60 minutes at RT. After dispensing loaded synaptosomes onto a compound plate (200 μL/well), the release reaction proceeded for an additional 15 minutes. Stop by filtration, counting, and data elaboration were performed as described for DA release. Compounds were tested in duplicate (n=2).

[2] = system: 5-HT release in rat synaptosomes; experiment: Serotonin release assay in rat cortex synaptosomes; assay type: biochemical; conditions: for 5-HT Release (pEC50): rat cortex synaptosomes, % of maximal release with 50 μM MDMA, n=2; for SERT/DAT Release Ratio: ratio of 5-HT and DA release potency, rat synaptosomes
Protocol: as §1, §2, §3

human DAT = target: T2, human DAT (Homo sapiens, UniProt Q01959); experiment: DAT uptake SPA in hDAT-CHO cells; assay type: cell-based; conditions: [3H]-dopamine uptake, hDAT-CHO cells; read-out: DAT Uptake SPA (pIC50) (converted)
T2 construct: expressed in transfected cells; host or cells: CHO (hDAT-CHO)
T2 sequence (Q01959 whole entry): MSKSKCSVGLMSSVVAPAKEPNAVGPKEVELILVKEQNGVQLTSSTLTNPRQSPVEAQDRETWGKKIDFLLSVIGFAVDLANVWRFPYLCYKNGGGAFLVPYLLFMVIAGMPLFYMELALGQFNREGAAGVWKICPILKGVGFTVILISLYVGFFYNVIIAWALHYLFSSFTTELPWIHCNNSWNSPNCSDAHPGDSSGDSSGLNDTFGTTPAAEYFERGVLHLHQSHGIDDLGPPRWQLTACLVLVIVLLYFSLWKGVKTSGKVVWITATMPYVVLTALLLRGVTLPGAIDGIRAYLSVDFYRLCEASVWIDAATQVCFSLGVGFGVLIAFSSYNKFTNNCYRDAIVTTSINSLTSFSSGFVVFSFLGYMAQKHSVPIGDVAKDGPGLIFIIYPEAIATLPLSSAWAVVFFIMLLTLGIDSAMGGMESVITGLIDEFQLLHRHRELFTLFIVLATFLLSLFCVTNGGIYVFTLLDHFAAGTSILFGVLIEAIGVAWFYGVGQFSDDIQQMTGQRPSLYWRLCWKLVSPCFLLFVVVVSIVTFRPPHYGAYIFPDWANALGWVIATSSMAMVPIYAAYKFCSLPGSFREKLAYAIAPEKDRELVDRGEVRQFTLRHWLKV
Protocol: Methods-Evaluation of Monoamine Uptake/Transporter Inhibition: Inhibitory activity on DAT function was measured using an uptake assay in a recombinant CHO cell line stably expressing human DAT (hDAT-CHO). Potency was measured in terms of pIC50 by testing for inhibition of [3H]-dopamine uptake in hDAT-CHO cells in a multiwell format SPA.
as §4
For both tests, the raw experimental data (cpm) were elaborated for the determination of pIC50/IC50 values as % inhibition of specific uptake.

DAT/SERT = conditions: Simmler et al., Br J Pharmacol. 2013; cited from earlier work

| SMILES | IC50 (hSERT) [µM] | DA Release (pEC50) [1] | 5-HT Release (pEC50) [2] | SERT/DAT Release Ratio [2] | IC50 (human DAT) [µM] | DAT/SERT ratio (DAT/SERT) | SERT/DAT Uptake Ratio (hSERT; calculated as 1/SERT IC50:1/DAT IC50) |
| --- | --- | --- | --- | --- | --- | --- | --- |
| COC(=O)CCc1ccc2c(c1)CC(N)C2 (centres unmarked) [CMP-407] | 25.1 | 4.6 | <4.0 | <0.25 | 63.1 |  |  |
| COC(=O)Cc1cc2c(cc1OC)CC(N)C2 (centres unmarked) [CMP-408] | 39.8 | <4.0 | 4.6 | 3.9 | 100 |  |  |
| CN[C@@H](C)Cc1ccccc1 [methamphetamine] |  |  |  |  |  | > 10 and 10 |  |
| COC(=O)Cc1ccc2c(c1)CC(N)C2 (centres unmarked) [CMP-406] | 63.1 | <4.0 | 4.3 | >2.0 | > 100 |  | >1.6 |
